14 compounds from PubChem BioAssay (NCI) can be followed below.

Where “and” joins values, the source holds several entries; their conditions need not be identical. Equal values may be shown once.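 Each compound was tested at five concentrations against cells in 96-well plates for 48 hours. At the GI50, growth is halved. Definition used: TGI = concentration required for complete inhibition of growth.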

Test in all cases: NCI tumour cell line growth inhibition, 48 h
Experiment [1] deals with HCT-116 colon.
In experiment [2] the test system is MDA-MB-435.
The test system of experiment [3] is DMS 273 small cell lung.
For experiment [4], the system named is DMS 114 small cell lung.
For experiment [5], the system named is NCI-H23 lung.
The test system of experiment [6] is BT-549 breast.
The subject of experiment [7] is EKVX NSCLC.
In experiment [8] the test system is NCI/ADR-RES ovarian.
The test system of experiment [9] is SF-539 CNS.
Experiment [10] has as its system COLO 205 colon.

For the compound `O=C1C(CN(Cc2ccccc2)Cc2ccccc2)CCCC1CN(Cc1ccccc1)Cc1ccccc1` (configuration not stated), the GI50 was 14.6 µM and 70.3 µM in experiment [1]; 17.1 µM and > 100 µM in [3]; 32.2 µM and > 100 µM in experiment [5]; 36.8 µM and > 100 µM in experiment [7]; 17.2 µM and 50.5 µM in [9]. The TGI was 21.5 µM and > 100 µM in [1]; over 100 µM in experiment [2]; 33.3 µM and > 100 µM in experiment [3]; 10.3 µM and > 100 µM in [4]; 50 µM and > 100 µM in experiment [5]; over 100 µM in [6]. Also, the TGI in experiment [7] is 59.9 µM and > 100 µM; in [8] it was over 100 µM; in experiment [9], 33.1 µM and > 100 µM.

`CC1C(=O)CCC1C(Sc1ccccc1)(Sc1ccccc1)Sc1ccccc1` (configuration not stated): the TGI was over 100 µM in [10]; over 100 µM in [1]; over 100 µM in experiment [3]; 49.6 µM in experiment [4]; over 100 µM in experiment [5]; over 100 µM in [7]. The same compound gave a TGI in experiment [9] of 35.1 µM.

For `Cc1nc2ccc(N=Nc3c(O)ccc4ccccc34)cc2[nH]1`, the TGI in experiment [10] was over 66.6 µM; in [1] it was over 58.4 µM; in [2], 45.9 µM; in experiment [3], 33.5 µM; in experiment [4], 63 µM; in [5], over 100 µM. Further, the TGI in [6] is 59.7 µM; in experiment [7], over 83.6 µM; in [8] it was 60.2 µM; in experiment [9], over 62.3 µM.

For the compound `O=[N+]([O-])c1ccccc1S(=O)(=O)c1ccccc1[N+](=O)[O-]`, the TGI in [10], in experiment [1], in experiment [2], in [3], in experiment [4] and in experiment [5] was over 100 µM throughout. In addition, the TGI in [6] was over 100 µM; in experiment [7], over 56.2 µM; in [8], over 100 µM; in experiment [9], over 96.8 µM.

For `COC(=O)C(=C\Sc1ccccc1)/C=C/C(=O)OC(C)(C)C`, the TGI in experiment [10] was 14 µM; in experiment [1] it was 21.9 µM; in experiment [3], 24.5 µM; in experiment [4], 25.8 µM; in experiment [5], 33.1 µM; in experiment [7], 24.9 µM. Besides, the TGI in experiment [9] was found to be 27 µM.

Regarding `Cc1cc(NC(=O)NC(=O)c2ccccc2[N+](=O)[O-])ccc1Oc1ncc(Cl)cn1`, the TGI in experiment [10] was over 20 µM; in experiment [1] it was 18 µM; in [3], 0.365 µM; in experiment [4], over 100 µM; in experiment [5], over 80.5 µM; in experiment [6] it was 91.5 µM. The TGI in experiment [7] is over 100 µM; in [9], 9.5 µM.

Take `COC(=O)C(C(=O)C(=O)Nc1c(Cl)cc([N+](=O)[O-])cc1Cl)c1nc2cc(C)c(C)cc2[nH]c1=O` (configuration not stated): the TGI in experiment [10], in [1], in experiment [3], in experiment [4], in [5] and in [7] was over 100 µM throughout. In [9], this compound gave a TGI of over 100 µM.

For `CC(=O)c1cc2c3c(c1)c1cc4c(cc1c(=O)n3CC2)OCO4`, the TGI in experiment [10] was over 100 µM; in experiment [1], 26.6 µM; in experiment [3], over 100 µM; in [4], over 100 µM; in [5] it was over 100 µM; in experiment [7], over 100 µM. Besides, the TGI in experiment [9] is over 100 µM.

In the case of `CCOC(=O)NC(=O)c1cn(CCCCCCCCCCC(=O)N2CCN(CCn3cc(C(=O)NC(=O)OCC)c(=O)[nH]c3=O)CC2)c(=O)[nH]c1=O`, the TGI in experiment [10], in experiment [1], in experiment [3], in [4], in experiment [5] and in [7] was over 100 µM throughout. The TGI in experiment [9] is over 100 µM.

For `CCOC(=O)/C(=C/c1cc(OC)ccc1OC)CC(=O)O`, the TGI in [10], in experiment [1], in [3], in experiment [4], in experiment [5] and in experiment [7] was over 100 µM each time. Moreover, the TGI in [9] was over 100 µM.

Regarding `OCC1OC(n2ccc3cnccc32)CC1O` (configuration not stated), the TGI in experiment [10], in experiment [1], in experiment [3], in experiment [4], in experiment [5] and in experiment [7] was over 100 µM in each case. The compound further returned a TGI in experiment [9] of over 100 µM.

On to `COc1ccc(C2Cc3cc(OC)c(OC)c(OC)c3C2=O)cc1` (configuration not stated), for which the TGI in experiment [10], in experiment [1], in experiment [3], in experiment [4], in [5] and in experiment [7] was over 100 µM throughout. In addition, the TGI in experiment [9] is over 100 µM.

Consider `Nc1ccccc1S(=O)c1ccccc1` (configuration not stated), for which the TGI in [10], in [1], in experiment [3], in experiment [4], in experiment [5] and in [7] was over 100 µM in each case. In addition, the TGI in [9] is over 100 µM.

Take `CC(C)CC(=O)N1CCN(C(=O)CC(C)C)c2ccccc21`: the TGI in experiment [10], in experiment [1], in experiment [3], in experiment [4], in experiment [5] and in experiment [7] was over 100 µM each time. Also, the TGI in [9] is over 100 µM.
